Results as given in ChEMBL document CHEMBL3639268, “Derivatives of N-acyl-N‚Ä=-phenylpiperazine useful (inter alia) for the prophylaxis or treatment of diabetes” (2014).

Biological target: Retinol-binding protein 4 (Homo sapiens, UniProt P02753)
Test: Binding Assay: Streptavidin (20 ul) (10 ug/ml Streptavidin type II (Wako Pure Chemical Industries, Ltd.), 10 mM Tris-HCl (pH 7.5), 10 mM NaCl) was added to a 384 well black plate (Nunc MaxiSorp, Thermo Fisher Scientific Inc.), and the plate was subjected to centrifugation (1000 rpm, 1 min) and coated overnight at 4 C. The plate was washed twice with PBST (PBS, 0.05% Tween 20, 100 ul/well) and blocked with 25% Block Ace (Snow Brand Milk Products Co., Ltd., PBS, 100 ul/well). The plate was subjected to centrifugation (1000 rpm, 1 min) and incubated at room temperature for 4 hr or overnight at 4 C. The plate was washed twice with PBST (PBS, 0.05% Tween 20, 100 ul/well), and biotinylate human TTR (stock solution concentration 1.0 mg/ml) diluted 750-fold with PBST was added at 20 ul/well. The plate was subjected to centrifugation (1000 rpm, 1 min) and stood still at room temperature for 1.5 hr or overnight at 4 C. The plate was washed 3 times with PBST (100 ul/well).

IC50: 15 nM
SMILES: CC(C)(C)c1ccccc1N1CCN(C(=O)c2nc[nH]n2)CC1
